Consider three compounds from patent publication EP0137689B1, “GRF analogs” (THE SALK INSTITUTE FOR BIOLOGICAL STUDIES, priority 1983, dated 1986).

This assay deals with cells of rat pituitary glands. Kind of assay: in vitro growth hormone release assay in rat pituitary cell cultures (ir GH measured by radioimmunoassay). Conditions: for intrinsic biological activity / potency: in equimolar ratios, side-by-side comparison with synthetic hGRF(1-44)-NH2, incubation 3 to 4 hours, GH release; for intrinsic activity / specific activity: multiple doses factorial design experiments; for intrinsic activity: compared with hGRF(1-44)-NH2; for specific activity: relative to hGRF(1-44)-NH2. It counts as cell-based. As for the experimental part:
To determine the effectiveness of the peptide to promote the release of growth hormone, in vitro assays are carried out using synthetic hGRF(1-44)-NH2 in side-by-side comparison with pGRF(1-44)-NH2 and of a GRF Reference Standard having a known effectiveness to promote the release of growth hormone from pituitary cells. The GRF Reference standard is described and defined in Brazeau, et al., Endocrinology, Vol. 110 A538 (1982) and is an amount of a preparation of rat hypothalamic origin that produces a half- maximal response in terms of GH release in a pituitary cell monolayer bioassay. Cultures are used which include cells of rat pituitary glands removed some four to five days previously. Both cultures of a defined standard medium and cultures which are considered optimal for the secretion of growth hormone are used for the comparative testing, in the general manner described in Brazeau, et al. Regulatory Peptides, 1, 255, 1981. Incubation with the substance to be tested is carried out for 3 to 4 hours, and aliquots of the culture medium are removed and processed to measure their contents in inmunoreactive GH(ir GH) by a well- characterized radioimmunoassay.
To determine the effectiveness of the peptide to promote the release of growth hormone, in vito assays are carried out using synthetic hGRF(1―44)-NH2 in side-by-side comparison with equimolar concentrations of bGRF(1―44)-NH2, as set forth hereinbefore in Example II.
To determine the effectiveness of the peptide to promote the release of growth hormone, in vitro assays are carried out using synthetic hGRF(1―44)-NH2 in side-by-side comparison with equimolar concentrations of the synthetic oGRF(1-44)-NH2 of Example V as set forth hereinbefore in Example II.

For `CC[C@H](C)[C@H](NC(=O)[C@H](C)NC(=O)[C@H](CC(=O)O)NC(=O)[C@H](C)NC(=O)[C@@H](N)Cc1ccc(O)cc1)C(=O)N[C@@H](Cc1ccccc1)C(=O)N[C@H](C(=O)N[C@@H](CC(N)=O)C(=O)N[C@@H](CO)C(=O)N[C@@H](Cc1ccc(O)cc1)C(=O)N[C@@H](CCCNC(=N)N)C(=O)N[C@@H](CCCCN)C(=O)N[C@H](C(=O)N[C@@H](CC(C)C)C(=O)NCC(=O)N[C@@H](CCC(N)=O)C(=O)N[C@@H](CC(C)C)C(=O)N[C@@H](CO)C(=O)N[C@@H](C)C(=O)N[C@@H](CCCNC(=N)N)C(=O)N[C@@H](CCCCN)C(=O)N[C@@H](CC(C)C)C(=O)N[C@@H](CC(C)C)C(=O)N[C@@H](CCC(N)=O)C(=O)N[C@@H](CC(=O)O)C(=O)N[C@H](C(=O)N[C@@H](CCSC)C(=O)N[C@@H](CC(N)=O)C(=O)N[C@@H](CCCNC(=N)N)C(=O)N[C@@H](CCC(N)=O)C(=O)N[C@@H](CCC(N)=O)C(=O)NCC(=O)N[C@@H](CCC(=O)O)C(=O)N[C@@H](CCCNC(=N)N)C(=O)N[C@@H](CC(N)=O)C(=O)N[C@@H](CCC(N)=O)C(=O)N[C@@H](CCC(=O)O)C(=O)N[C@@H](CCC(N)=O)C(=O)NCC(=O)N[C@@H](C)C(=O)N[C@@H](CCCCN)C(=O)N[C@H](C(=O)N[C@@H](CCCNC(=N)N)C(=O)N[C@@H](CC(C)C)C(N)=O)C(C)C)[C@@H](C)CC)[C@@H](C)CC)[C@@H](C)O` [oGRF(1-44), H-Tyr-Ala-Asp-Ala-lle-Phe-Thr-Asn-Ser-Tyr-Arg-Lys-lle-Leu-Gly-Gln-Leu-Ser-Ala-Arg-Lys-Leu-Leu-Gln-Asp- lle-Met-Asn-Arg-Gln-Gln-Gly-Glu-Arg-Asn-Gln-Glu-Gln-Gly-Ala-Lys-Val-Arg-Leu-NH2], the intrinsic biological activity entry is “full intrinsic biological activity”, the potency entry is given as “close to the same potency”, the intrinsic activity result is “about the same intrinsic activity” and the specific activity entry was “about 70 % of hGRF(1-44)-NH2”.

In the case of `CC[C@H](C)[C@H](NC(=O)[C@H](C)NC(=O)[C@H](CC(=O)O)NC(=O)[C@H](C)NC(=O)[C@@H](N)Cc1ccc(O)cc1)C(=O)N[C@@H](Cc1ccccc1)C(=O)N[C@H](C(=O)N[C@@H](CC(N)=O)C(=O)N[C@@H](CO)C(=O)N[C@@H](Cc1ccc(O)cc1)C(=O)N[C@@H](CCCNC(=N)N)C(=O)N[C@@H](CCCCN)C(=O)N[C@H](C(=O)N[C@@H](CC(C)C)C(=O)NCC(=O)N[C@@H](CCC(N)=O)C(=O)N[C@@H](CC(C)C)C(=O)N[C@@H](CO)C(=O)N[C@@H](C)C(=O)N[C@@H](CCCNC(=N)N)C(=O)N[C@@H](CCCCN)C(=O)N[C@@H](CC(C)C)C(=O)N[C@@H](CC(C)C)C(=O)N[C@@H](CCC(N)=O)C(=O)N[C@@H](CC(=O)O)C(=O)N[C@H](C(=O)N[C@@H](CCSC)C(=O)N[C@@H](CC(N)=O)C(=O)N[C@@H](CCCNC(=N)N)C(=O)N[C@@H](CCC(N)=O)C(=O)N[C@@H](CCC(N)=O)C(=O)NCC(=O)N[C@@H](CCC(=O)O)C(=O)N[C@@H](CCCNC(=N)N)C(=O)N[C@@H](CC(N)=O)C(=O)N[C@@H](CCC(N)=O)C(=O)N[C@@H](CCC(=O)O)C(=O)N[C@@H](CCC(N)=O)C(=O)NCC(=O)N[C@@H](C)C(=O)N[C@@H](CCCCN)C(=O)N[C@H](C(=O)N[C@@H](CCCNC(=N)N)C(=O)N[C@@H](CC(C)C)C(N)=O)C(C)C)[C@@H](C)CC)C(C)C)[C@@H](C)O` [bGRF(1-44)-NH2], the intrinsic biological activity result is “full intrinsic biological activity”, the potency entry is recorded as “close to the same potency”, the intrinsic activity entry is “same intrinsic activity” and the specific activity result is “about 70 % of hGRF(1-44)-NH2”.

Turning to `CC[C@H](C)[C@H](NC(=O)[C@H](C)NC(=O)[C@H](CC(=O)O)NC(=O)[C@H](C)NC(=O)[C@@H](N)Cc1ccc(O)cc1)C(=O)N[C@@H](Cc1ccccc1)C(=O)N[C@H](C(=O)N[C@@H](CC(N)=O)C(=O)N[C@@H](CO)C(=O)N[C@@H](Cc1ccc(O)cc1)C(=O)N[C@@H](CCCNC(=N)N)C(=O)N[C@@H](CCCCN)C(=O)N[C@H](C(=O)N[C@@H](CC(C)C)C(=O)NCC(=O)N[C@@H](CCC(N)=O)C(=O)N[C@@H](CC(C)C)C(=O)N[C@@H](CO)C(=O)N[C@@H](C)C(=O)N[C@@H](CCCNC(=N)N)C(=O)N[C@@H](CCCCN)C(=O)N[C@@H](CC(C)C)C(=O)N[C@@H](CC(C)C)C(=O)N[C@@H](CCC(N)=O)C(=O)N[C@@H](CC(=O)O)C(=O)N[C@H](C(=O)N[C@@H](CCSC)C(=O)N[C@@H](CO)C(=O)N[C@@H](CCCNC(=N)N)C(=O)N[C@@H](CCC(N)=O)C(=O)N[C@@H](CCC(N)=O)C(=O)NCC(=O)N[C@@H](CCC(=O)O)C(=O)N[C@@H](CCCNC(=N)N)C(=O)N[C@@H](CC(N)=O)C(=O)N[C@@H](CCC(N)=O)C(=O)N[C@@H](CCC(=O)O)C(=O)N[C@@H](CCC(N)=O)C(=O)NCC(=O)N[C@@H](C)C(=O)N[C@@H](CCCNC(=N)N)C(=O)N[C@H](C(=O)N[C@@H](CCCNC(=N)N)C(=O)N[C@@H](CC(C)C)C(N)=O)C(C)C)[C@@H](C)CC)C(C)C)[C@@H](C)O` [pGRF(1-44)-NH2], the intrinsic biological activity result is on record as “full intrinsic biological activity” and the potency entry is listed as “close to the same potency”.
